Our source for the IC50 values is ChEMBL document CHEMBL1126054, “Structure and molecular modeling of GABAA receptor antagonists” (J Med Chem, 1992).

Assay [1] deals with GABA-A receptor; anion channel. As to the kind of experiment: Displacement of [3H]muscimol from Gamma-aminobutyric acid A (GABA-A) receptor. The format is protein-complex assay, Rattus norvegicus. Background: Loss of bound radioactivity is the signal in a displacement assay; it reports binding, not function.
Assay [2] deals with GABA-A receptor; anion channel. Briefly: (§1) Displacement of [3H]GABA from gamma-aminobutyric-acid A (GABA-A) receptor. Format: protein-complex assay, Rattus norvegicus.
Assay [3] is described as follows: as §1. Also on record: species or system Rattus norvegicus.

Each structure is given as a SMILES string.

By IC50 is commonly meant the concentration that gives 50% inhibition. In the case of `c1ccc2c(c1)Cc1ccccc1-n1c-2nnc1N1CCNCC1` [PITRAZEPINE], the IC50 in assay [1] was found to be 0.24 µM.
In turn, `COc1cc2c3cc1Oc1cc(ccc1O)C[C@@H]1c4c(cc(OC)c(O)c4Oc4ccc(cc4)C[C@@H]3N(C)CC2)CC[N+]1(C)C` yielded an IC50 in assay [2] of 58 µM.
Same read-out and setting: the result for `CC12CC(=O)C3C(CCC4CC(O)CCC43C)C1CC(=N)N2` (stereo not given) reads 0.02 µM.
The compound `O=C1C=C2C=C[C@@H]3C[C@@]2(O1)[C@H]1CCCCN31` [SECURININE] had an IC50 in assay [3] of 50 µM. This counts as double-digit micromolar.
The compound `Oc1onc2c1CCNCC2` yielded an IC50 in assay [2] of 16 µM.
